Experimental data: patent US7384931B2, “Constrained compounds as CGRP-receptor antagonists” (Bristol-Myers Squibb Company, priority 2004, dated 2008)

Biological target: CGRP receptor (Homo sapiens, UniProt O60894+Q16602)
Test: CGRP radioligand binding assay ([125I]-CGRP displacement, SK-N-MC homogenate)
Set-up: endogenous in cells; host or cells: SK-N-MC cells (homogenate/membrane pellet)
Conditions: displacement of [125I]-CGRP, room temperature 2 h
Protocol: CGRP Binding Assay. Tissue Culture. SK—N-MC cells were grown at 37° C. in 5% CO2 as a monolayer in medium consisting of MEM with Earle's salts and L-glutamine (Gibco) supplemented with 10% fetal bovine serum (Gibco). Cell Pellets. The cells were rinsed twice with phosphate-buffered saline (155 mM NaCl, 3.3 mM Na2HPO4, 1.1 mM KH2PO4, pH 7.4), and incubated for 5-10 min. at 4° C. in hypotonic lysis buffer consisting of 10 mM Tris (pH 7.4) and 5 mM EDTA. The cells were transferred from plates to polypropylene tubes (16×100 mm) and homogenized using a polytron. Homogenates were centrifuged at 32,000×g for 30 min. The pellets were resuspended in cold hypotonic lysis buffer with 0.1% mammalian protease inhibitor cocktail (Sigma) and assayed for protein concentration. The SK—N-MC homogenate was then aliquoted and stored at −80° C. until needed.
Radioligand Binding Assay. The compounds of invention were solubilized and carried through serial dilutions using 100% DMSO. Aliquots from the compound serial dilutions were further diluted 25 fold into assay buffer (50 mM Tris-Cl pH 7.5, 5 mM MgCl2, 0.005% Triton X-100) and transferred (volume 50 μl) into 96 well assay plates. [^125I]-CGRP (Amersham Biosciences) was diluted to 60 pM in assay buffer and a volume of 50 μl was added to each well. SK—N-MC pellets were thawed, diluted in assay buffer with fresh 0.1% mammalian protease inhibitor cocktail (Sigma), and homogenized again. SK—N-MC homogenate (5 μg/well) was added in a volume of 100 μl. The assay plates were then incubated at room temperature for 2 h. Assays were stopped by addition of excess cold wash buffer (20 mM Tris-Cl pH 7.5, 0.1% BSA) immediately followed by filtration over glass fiber filters (Whatman GF/B) previously soaked in 0.5% PEI. Non-specific binding was defined with 1 μM beta-CGRP. Protein bound radioactivity was determined using a gamma or scintillation counter. The IC50 was defined as the concentration of a compound of invention required to displace 50% of radioligand binding.

Sequence of CGRP receptor (Q16602 23-461): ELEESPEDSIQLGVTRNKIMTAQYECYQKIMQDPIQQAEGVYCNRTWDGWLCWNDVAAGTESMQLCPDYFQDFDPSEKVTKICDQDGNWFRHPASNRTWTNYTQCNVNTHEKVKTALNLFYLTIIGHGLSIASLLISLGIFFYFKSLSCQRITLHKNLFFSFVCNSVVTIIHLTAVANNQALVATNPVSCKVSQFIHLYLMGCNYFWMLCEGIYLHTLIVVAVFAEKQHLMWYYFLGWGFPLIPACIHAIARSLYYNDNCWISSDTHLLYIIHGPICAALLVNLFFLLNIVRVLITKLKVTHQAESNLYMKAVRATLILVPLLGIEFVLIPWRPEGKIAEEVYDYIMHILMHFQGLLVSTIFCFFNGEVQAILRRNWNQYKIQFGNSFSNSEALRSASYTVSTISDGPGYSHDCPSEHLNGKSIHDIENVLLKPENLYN
Sequence of CGRP receptor (O60894 27-148): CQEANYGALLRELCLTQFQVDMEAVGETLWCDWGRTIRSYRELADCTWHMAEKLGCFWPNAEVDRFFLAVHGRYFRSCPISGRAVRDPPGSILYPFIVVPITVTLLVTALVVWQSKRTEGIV

Q: How did the IC50 turn out when `CC(C)(C)CN1Cc2c(ccc3[nH]ncc23)C[C@@H](CC(=O)N2CCC3(CC2)NC(=O)Nc2ccccc23)C1=O` [Example 71, 1-[[7-(S)-9-(2,2-Dimethylpropyl)-3,6,7,8,9,10-hexahydro-8-oxoazepino[3,4-e]indazol-7-yl]acetyl]-spiro[piperidine-4,4′(1′H)-quinazolin]-2′(3′H)-one] was run?
A: 100 to 1000 nM

Q: Which IC50 does the source give for `CC(C)(C)CN1Cc2c(ccc3[nH]ncc23)C[C@@H](CC(=O)N2CCC(c3cnc4ccccc4c3)CC2)C1=O` [Example 72, 1-[[7-(S)-9-(2,2-Dimethylpropyl)-3,6,7,8,9,10-hexahydro-8-oxoazepino[3,4-e]indazol-7-yl]acetyl]-4-(3-quinolinyl)piperidine] here?
A: > 1000 nM

Q: With `COc1cc2ccccc2cc1C1CCN(C(=O)C[C@@H]2Cc3cc(Cl)c4[nH]ncc4c3CN(CC(C)(C)C)C2=O)CC1` [Example 73, 1-[[7-(S)-4-choro-9-(2,2-Dimethylpropyl)-3,6,7,8,9,10-hexahydro-8-oxoazepino[3,4-e]indazol-7-yl]acetyl]-4-(3-methoxy-2-naphthalenyl)piperidine] as the molecule, how does the IC50 read?
A: > 1000 nM

Q: Which IC50 does the source give for `CC(C)(C)CN1Cc2c(cc(Cl)c3[nH]ncc23)C[C@@H](CC(=O)N2CCC(c3cc4ccccc4cc3O)CC2)C1=O` [Example 74, 1-[[7-(S)-4-choro-9-(2,2-Dimethylpropyl)-3,6,7,8,9,10-hexahydro-8-oxoazepino[3,4-e]indazol-7-yl]acetyl]-4-(3-hydroxy-2-naphthalenyl)piperidine] here?
A: > 1000 nM

Q: For `O=C(C[C@@H]1Cc2cc(Cl)c3[nH]ncc3c2CN(CC(F)(F)F)C1=O)N1CCC(N2Cc3ccccc3NC2=O)CC1` [Example 75, 1-[[(7S)-4-Chloro-3,6,7,8,9,10-hexahydro-8-oxo-9-(2,2,2-trifluoroethly)azepino[3,4-e]indazol-7-yl]acetyl]-4-(1,4-dihydro-2-oxo-3(2H)-quinazolinyl)-piperidine], which IC50 is on record?
A: 0.1 to 10 nM

Q: How did the IC50 turn out when `CC(C)(C)CN1Cc2c(cc(Cl)c3[nH]ncc23)C[C@@H](CC(=O)N2CCC(C3C(=O)c4ccccc4NS3(=O)=O)CC2)C1=O` (stereo partly drawn) [Example 76, 1-[[7-(S)-4-choro-9-(2,2-Dimethylpropyl)-3,6,7,8,9,10-hexahydro-8-oxoazepino[3,4-e]indazol-7-yl]acetyl]-4-(3,4-dihydro-2,2-dioxido-4-oxo-1H-2,1-benzothiazin-3-yl)piperidine] was run?
A: 10 to 100 nM

Q: `CC(C)(C)CN1Cc2c(cc(Cl)c3[nH]ncc23)C[C@@H](CC(=O)N2CCC(N3Cc4cccnc4NC3=O)CC2)C1=O` [Example 78] was tested. Which IC50 did it give?
A: 0.1 to 10 nM

Q: For `CC(C)(C)CN1Cc2c(cc(Cl)c3[nH]ncc23)C[C@@H](CC(=O)N2CCC(c3cc4cccnc4[nH]c3=O)CC2)C1=O` [Example 79, 1-[[(7S)-4-chloro-9-(2,2-dimethylpropyl)-3,6,7,8,9,10-hexahydro-8-oxoazepino[3,4-e]indazol-7-yl]acetyl]-4-(1,2-dihydro-2-oxo-1,8-naphthyridin-3-yl)-piperidine], which IC50 is on record?
A: 0.1 to 10 nM

Q: For `O=C(C[C@@H]1Cc2cc(Cl)c3[nH]ncc3c2CN(Cc2ccncc2)C1=O)N1CCC(c2cc3ccccc3c[n+]2[O-])CC1` [Example 82], which IC50 is on record?
A: 0.1 to 10 nM

Q: For `O=C(C[C@@H]1Cc2cc(Cl)c3[nH]ncc3c2CN(Cc2ccncc2)C1=O)N1CCC(c2ccc(-c3ccccc3)c[n+]2[O-])CC1` [Example 83, (S)-1-[[(7S)-4-chloro-3,6,7,8,9,10-hexahydro-8-oxo-9-(4-pyridinylmethyl)azepino[3,4-e]indazol-7-yl]acetyl]-4-(1-oxido-5-phenyl-2-pyridinyl)-piperidine], which IC50 is on record?
A: 100 to 1000 nM

Q: Which IC50 does the source give for `CC(C)(C)CN1Cc2c(cc(Cl)c3[nH]ncc23)C[C@@H](CC(=O)N2CCC(c3ccc(-c4ccccc4)c[n+]3[O-])CC2)C1=O` [Example 84, (S)-1-[[(7S)-4-chloro-9-(2,2-dimethylpropyl)-3,6,7,8,9,10-hexahydro-8-oxoazepino[3,4-e]indazol-7-yl]acetyl]-4-(1-oxido-5-phenyl-2-pyridinyl)-piperidine] here?
A: 100 to 1000 nM

Q: With `CC(C)(C)CN1Cc2c(ccc3[nH]ncc23)CC(N/C(=N/C#N)N2CCC(N3Cc4ccccc4NC3=O)CC2)C1=O` (stereo not drawn) [Example 88, (E, Z)-N′-cyano-N-(9-neopentyl-8-oxo-3,6,7,8,9,10-hexahydroazepino[3,4-e]indazol-7-yl)-4-(2-oxo-1,2-dihydroquinazolin-3(4H)-yl)piperidine-1-carboxamidine] as the molecule, how does the IC50 read?
A: 0.1 to 10 nM

Q: With `O=C(C[C@@H]1Cc2cc(Cl)c3[nH]ncc3c2CN(CC(F)(F)F)C1=O)N1CCC(c2cc3cccnc3[nH]c2=O)CC1` [Example 89, (S)-4-chloro-7-(2-oxo-2-(4-(2-oxo-1,2-dihydro-1,8-naphthyridin-3-yl)piperidin-1-yl)ethyl)-9-(2,2,2-trifluoroethyl)-6,7,9,10-tetrahydroazepino[3,4-e]indazol-8(3H)-one] as the molecule, how does the IC50 read?
A: 0.1 to 10 nM

Q: Which IC50 does the source give for `O=C(C[C@@H]1Cc2cc(Cl)c3[nH]ncc3c2CN(CC(F)(F)F)C1=O)N1CCC(c2cc3ccccc3[nH]c2=O)CC1` [Example 90, (S)-4-chloro-7-(2-oxo-2-(4-(2-oxo-1,2-dihydroquinolin-3-yl)piperidin-1-yl)ethyl)-9-(2,2,2-trifluoroethyl)-6,7,9,10-tetrahydroazepino[3,4-e]indazol-8(3H)-one] here?
A: 0.1 to 10 nM

Q: How did the IC50 turn out when `O=C(C[C@@H]1Cc2cc(Cl)c3[nH]ncc3c2CN(CC(F)(F)F)C1=O)N1CCC(c2cc3cccc(F)c3[nH]c2=O)CC1` [Example 91, (S)-4-chloro-7-(2-(4-(8-fluoro-2-oxo-1,2-dihydroquinolin-3-yl)piperidin-1-yl)-2-oxoethyl)-9-(2,2,2-trifluoroethyl)-6,7,9,10-tetrahydroazepino[3,4-e]indazol-8(3H)-one] was run?
A: 0.1 to 10 nM

Q: Which IC50 does the source give for `CC(C)(C)CN1Cc2c(cc(Cl)c3[nH]ncc23)C[C@@H](CC(=O)N2CCC(C3=Cc4ccccc4NS3(=O)=O)CC2)C1=O` [Example 92] here?
A: 10 to 100 nM

Q: With `CC(C)(C)CN1Cc2c(cc(Cl)c3[nH]ncc23)C[C@@H](CC(=O)N2CCC(c3ccc(Cl)cc3Cl)CC2)C1=O` [Example 93, (S)-4-chloro-7-(2-(4-(2,4-dichlorophenyl)piperidin-1-yl)-2-oxoethyl)-9-neopentyl-6,7,9,10-tetrahydroazepino[3,4-e]indazol-8(3H)-one] as the molecule, how does the IC50 read?
A: 100 to 1000 nM

Q: How did the IC50 turn out when `CC(C)(C)CN1Cc2c(cc(Br)c3[nH]ncc23)C[C@@H](CC(=O)N2CCC(c3cc4ccccc4[nH]c3=O)CC2)C1=O` [Example 94, (S)-4-bromo-9-neopentyl-7-(2-oxo-2-(4-(2-oxo-1,2-dihydroquinolin-3-yl)piperidin-1-yl)ethyl)-6,7,9,10-tetrahydroazepino[3,4-e]indazol-8(3H)-one] was run?
A: 0.1 to 10 nM

Q: How did the IC50 turn out when `CC(C)(C)CN1Cc2c(cc(Br)c3[nH]ncc23)C[C@@H](CC(=O)N2CCC(c3cc4cccc(F)c4[nH]c3=O)CC2)C1=O` [Example 95, (S)-4-bromo-7-(2-(4-(8-fluoro-2-oxo-1,2-dihydroquinolin-3-yl)piperidin-1-yl)-2-oxoethyl)-9-neopentyl-6,7,9,10-tetrahydroazepino[3,4-e]indazol-8(3H)-one] was run?
A: 10 to 100 nM

Q: For `O=C(C[C@@H]1Cc2cc(Br)c3[nH]ncc3c2CN(CC(F)(F)F)C1=O)N1CCC(c2cc3cccnc3[nH]c2=O)CC1` [Example 96, (S)-4-bromo-7-(2-oxo-2-(4-(2-oxo-1,2-dihydro-1,8-naphthyridin-3-yl)piperidin-1-yl)ethyl)-9-(2,2,2-trifluoroethyl)-6,7,9,10-tetrahydroazepino[3,4-e]indazol-8(3H)-one], which IC50 is on record?
A: 0.1 to 10 nM

Q: For `O=C(C[C@@H]1Cc2cc(Br)c3[nH]ncc3c2CN(CC(F)(F)F)C1=O)N1CCC(c2cc3ccccc3[nH]c2=O)CC1` [Example 97, (S)-4-bromo-7-(2-oxo-2-(4-(2-oxo-1,2-dihydroquinolin-3-yl)piperidin-1-yl)ethyl)-9-(2,2,2-trifluoroethyl)-6,7,9,10-tetrahydroazepino[3,4-e]indazol-8(3H)-one], which IC50 is on record?
A: 0.1 to 10 nM

Q: How did the IC50 turn out when `O=C(C[C@@H]1Cc2cc(Br)c3[nH]ncc3c2CN(CC(F)(F)F)C1=O)N1CCC(c2cc3cccc(F)c3[nH]c2=O)CC1` [Example 98, (S)-4-bromo-7-(2-(4-(8-fluoro-2-oxo-1,2-dihydroquinolin-3-yl)piperidin-1-yl)-2-oxoethyl)-9-(2,2,2-trifluoroethyl)-6,7,9,10-tetrahydroazepino[3,4-e]indazol-8(3H)-one] was run?
A: 10 to 100 nM

Q: Which IC50 does the source give for `CC(C)(C)CN1Cc2c(cc(Cl)c3[nH]ncc23)C[C@@H](N/C(=N/C#N)N2CCC(c3cc4ccccc4[nH]c3=O)CC2)C1=O` [Example 99] here?
A: 0.1 to 10 nM

Q: `Cc1cc2c(c3cn[nH]c13)CN(CC(C)(C)C)C(=O)[C@H](CC(=O)N1CCC(c3cc4ccccc4[nH]c3=O)CC1)C2` [Example 100, (S)-4-methyl-9-neopentyl-7-(2-oxo-2-(4-(2-oxo-1,2-dihydroquinolin-3-yl)piperidin-1-yl)ethyl)-6,7,9,10-tetrahydroazepino[3,4-e]indazol-8(3H)-one] was tested. Which IC50 did it give?
A: 0.1 to 10 nM
